One may read the AUC(0-t) as the area under the concentration-time curve up to a stated or last time point. Read a low AUC(0-t) as low exposure. Usually Cmax stands for the peak of the concentration-time curve. Broadly, the Tmax is the time from dosing to the highest level. As usually defined, the IC50 is the concentration that gives 50% inhibition.

This is an account of results in patent EP4640679A1, “SALT FORM AND CRYSTAL FORM OF PYRIDINE MULTI-SUBSTITUTED COMPOUND AND PREPARATION METHOD THEREFOR” (Usynova Pharmaceuticals Ltd., priority 2022, dated 2024).

Data set [1] is described as follows: Pharmacokinetic study, oral administration, mouse. The class given is in vivo, CD-1 mice. The note with it: plasma, 10 mg/kg, 10 mpk. The procedure:
(§1) The purpose of this experiment is to study the pharmacokinetics of the test substance in the plasma of male CD-1 mice, SD rats and […] after intravenous injection and oral administration.
(§2) The animals were randomly divided into two groups, with 2 males in each group. The compounds were formulated into the specified formulations (the vehicle was 5 mg/mL of 10% sulfobutyl ether-β-cyclodextrin), and the oral formulations were clear or homogeneous suspensions.
(§3) Whole blood samples were collected from the animals by jugular vein puncture or saphenous vein at 5, 15, 30 minutes, 1, 2, 4, 8, and 24 hours after administration. The whole blood samples were added into centrifuge tubes containing anticoagulants, and centrifuged at 3000g for 15 minutes at 4°C. The supernatant plasma was collected and quickly frozen on dry ice and then stored in a refrigerator at -70 ± 10°C until LC-MS/MS analysis.
(§4) The pharmacokinetic software WinNonlin™ Version 6.3.0 (Pharsight, Mountain View, CA) was used to process the plasma drug concentration data of the compound in a non-compartmental model. The peak concentration (Cmax) and time to peak (Tmax) as well as last measurable time point were directly obtained from the plasma drug concentration-time graph.
(§5) The following pharmacokinetic parameters were calculated using the log-linear trapezoidal method: plasma clearance rate (CL), volume of distribution (Vd), elimination phase half-life (T1/2), mean residence time of drug in vivo from 0 to the terminal time point (MRT0-last), mean residence time of drug in vivo from 0 to infinite time (MRT0-inf), area under the time-plasma concentration curve from 0 to the terminal time point (AUC0-last), area under the time-plasma concentration curve from 0 to infinite time (AUC0-inf), and bioavailability (F). The experimental results of the present disclosure are shown in Table 5: Table 5: Pharmacokinetic test results

Data set [2] is described as follows: Pharmacokinetic study, oral administration, rat. The class given is in vivo, SD rats. The settings on record: plasma, 30 mg/kg, 30 mpk. As for the experimental part:
as §1, §2, §3, §4, §5

The nature of data set [3]: Pharmacokinetic study, oral administration, dog. The class given is in vivo. The note with it: plasma, 25 mg/kg, 25 mpk. The procedure: as §1, §2, §3, §4, §5
Data set [4] deals with T1, TYK2 protein (His-TVMV-TYK2 JH2 (575-869)) (Homo sapiens, UniProt P29597).
T1 construct: TYK2 protein (His-TVMV-TYK2 JH2 (575-869))
In words: Tyk2 JH2 enzyme activity test (HTRF tracer displacement). The format is binding. The procedure:
To a buffer solution containing 20 mM of Hepes pH 7.5, 10 mM of MgCl2, 0.015% of Brij-35, 2 mM of DTT and 50 µg/ mL of BSA were added 0.5 nM of TYK2 protein (His-TVMV-TYK2 JH2 (575-869)), 0.2 nM of terbium-labeled His antibody, fluorescein-labeled kinase tracer at the relevant Kd value, and the test compound. The test system was incubated at room temperature for 90 minutes. Subsequently, the generated HTRF (homogeneous time-resolved fluorescence) signal, i.e., the ratio of the fluorescence intensity of the fluorescein acceptor (520 nm) and the terbium donor (495 nm) at the emission wavelength, was measured on an Envision plate reader, and the IC50 value was calculated based on this. The results of in vitro enzyme activity assay of the free base of the compound of the present disclosure are shown in Table 3: Table 3: In vitro enzyme activity test results of the compound of the present disclosure (IC50)
In general terms: TR-FRET usually uses a lanthanide donor and a delayed reading to cut background.

Data set [5] relates to IFNα-stimulated phosphorylated STAT1. Nature of the data set: IFNα-stimulated phosphorylation STAT1 assay in hPBMC (flow cytometry, CD4+ T cells). The format is cell-based, Human. As for the experimental part:
Human peripheral blood mononuclear cells (hPBMC) were seeded at a cell density of 1x10^5 cells/well and placed in an incubator at 37°C for 90 minutes. Then different concentrations of compounds were added to the cells, wherein the concentration range of each compound started from 2 µM, which was serially diluted 5-fold to obtain a total of 8 concentration gradients. The compounds and cells were incubated at 37 °C for 30 minutes. hPBMC were stimulated with IFN-a (1000 U/ml), and then the level of phosphorylated STAT1 in CD4+ T cells was detected by flow cytometry to evaluate the inhibitory activity of the compound on the IFN-α pathway. The results of the in vitro cell activity assay of the free base of the compound of the present disclosure are shown in Table 4: Table 4: In vitro cell activity test results of the compound of the present disclosure (IC50)

T1 sequence (P29597 575-869, species assumed): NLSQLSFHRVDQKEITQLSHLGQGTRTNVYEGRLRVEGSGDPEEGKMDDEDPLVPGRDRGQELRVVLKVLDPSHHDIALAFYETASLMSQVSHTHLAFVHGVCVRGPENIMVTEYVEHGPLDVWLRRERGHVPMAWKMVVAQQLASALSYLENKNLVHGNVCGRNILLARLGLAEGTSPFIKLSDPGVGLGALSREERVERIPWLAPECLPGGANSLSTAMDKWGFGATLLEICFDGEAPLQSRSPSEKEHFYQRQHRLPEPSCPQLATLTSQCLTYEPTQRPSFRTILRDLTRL

As for `[2H]C([2H])([2H])CC(=O)c1cnc(NC(=O)C2CC2)cc1Nc1cccc(-c2cnc(N=S(C)(C)=O)cn2)c1OC` [Compound of formula (I)], in data set [1], the AUC(0-t) was 76 µM·h, the Cmax is 32.4 µM, the Tmax amounted to 30 min and the bioavailability was 81%. Moreover, in data set [2], the AUC(0-t) came to 231 µM·h, the highest level (Cmax) was 44.5 µM, the Tmax amounted to 45 min and the bioavailability stood at 65%. In data set [3], the AUC(0-t) was found to be 66.5 µM·h, the maximum concentration (Cmax) was found to be 16.8 µM, the Tmax came to 120 min and the bioavailability amounted to 103%.

For `[2H]C([2H])([2H])CC(=O)c1cnc(NC(=O)C2CC2)cc1Nc1cccc(-c2cnc(N=S(C)(C)=O)cn2)c1OC`, the IC50 amounted to 0.04 nM in data set [4] (HTRF, 90 minutes at room temperature) and 1.1 nM in data set [5] (Homo sapiens, CD4+ T, read-out: IFNα-stimulated phosphorylated STAT1 (IC50 nM)). In addition, the “inhibitory activity against Tyk2 JH2” value in data set [4] (conclusion in words) is given as “strong inhibitory activity”. Besides, in data set [5] (conclusion in words), the “Tyk2-related cellular activity on IFNα-stimulated phosphorylated STAT1” value is “strong Tyk2-related cellular activity”.
